Experimental data as given in patent publication US20230134859A1, “METHOD FOR SCREENING FOR, METHOD FOR PRODUCING, AND METHOD FOR DESIGNING DRUG ACTIVE INGREDIENTS” (SKY PHARMA CO., LTD., priority 2020, published 2023).

Assays:
Type in all cases: in vivo
pancreatic β cells = assay: Test Example 9: pancreatic β cells and insulin in transgenic zebrafish embryos; conditions: vs control; for production amount of insulin by β cells (in situ hybridization, ins probe): 100 nM, 14 h after injection, n=100; for production amount of insulin by β cells (immunostaining with anti-insulin antibody, average fluorescence intensity): 100 nM or 5 nM, 20 h after injection, n=10
Protocol: Transgenic zebrafish expressing pancreatic β-cell GFP
Transgenic zebrafish embryos expressing pancreatic β-cell GFP at 10 hours after fertilization were held with the dorsal side of the head up on a coffin, and a glass capillary was inserted from the dorsal side into a gap just below the midline neural tube at about 2 times the distance between the rostral end and the ear vesicles to the caudal side (pancreatic primordium). A nitrogen gas pressure (15 picosiemens) was applied for 15 to 45 milliseconds, and the test compound was injected. The concentration of the test compound was 100 nM/E3, and 0.025% (final concentration) phenol red was mixed as a tracer of the infusion solution. The injection was performed in pulses with a foot pedal and continued until phenol red was distributed in an elliptical shape with a major axis of 200 μm from the insertion point.
The test compound (100 nM) was injected on a coffin in transgenic zebrafish embryos expressing pancreatic β-cell GFP at 10 hours after fertilization. After injection, embryos were cultured in E3 at 28.5° C. for 14 hours. After chorions were removed with tweezers, the embryos were fixed with 4% paraformaldehyde/PBS at room temperature for 1 hour, and in situ hybridization was performed overnight at 65° C. in the presence of a DIG probe of insulin (ins) according to a conventional method. After washing, β cells were stained by an alkali phosphatase color reaction using an anti-DIG antibody. After staining, the embryos were washed with PBS, embedded in 75% glycerin/PBS and localized, and then microscopically photographed with incident light. The number of test individuals was unified with n=100 for each test compound (FIG. 23).
Transgenic zebrafish embryos expressing pancreatic β-cell GFP at 10 hours after fertilization were injected with the test compound (100 nM or 5 nM) on the coffin. After injection, embryos were cultured in E3 at 28.5° C. for 20 hours in the presence of 0.2 mM phenylthiourea (PTU). After chorions were removed with tweezers, the embryos were fixed with 4% paraformaldehyde/PBS at normal temperature for 1 hour, immunohistochemically reacted with an anti-insulin antibody according to a conventional method, and then reacted with an Alexa fluor 488 anti-mouse IgG secondary antibody. The reacted embryos were washed with PBS, embedded in 75% glycerin/PBS and localized, and then microscopically photographed with 488 nm excitation light (FIG. 24). The number of tested individuals was unified with n=10 for each compound. The insulin amount was quantified by measuring the average fluorescence intensity in a circle with a radius of 100 μm centered on the fluorescence point (FIG. 25).

cardiomyocytes = assay: Test Example 8: enhancement of myocardium in zebrafish embryo (nkx2.5 in situ hybridization, blood cells pumped per heartbeat); conditions: test compounds = Compounds 1 to 7; 100 μM injected at heart primordium 10 h after fertilization; vs control; n=80
Protocol: Zebrafish embryos at 10 hours after fertilization were held with the dorsal side of the head up on a coffin (plastic plate with V-shaped grooves for holding), and a glass capillary was inserted into a midline between head and ear vesicles (heart primordium). Nitrogen gas pressure (15 picosiemens) was applied for 15 to 45 milliseconds and injected into the gap just below the neural tube. The test compound concentration was 100 μM/E3, and 0.025% (final concentration) phenol red was mixed as a tracer of the injection solution. The injection was performed in pulses with a foot pedal and continued until phenol red was distributed in an elliptical shape with a major axis of 200 μm from the insertion point. After injection, embryos were cultured at 28.5° C. for 14 hours in E3. After chorions were removed with tweezers, the embryos were fixed with 4% paraformaldehyde/PBS at normal temperature for 1 hour, and in situ hybridization was performed overnight at 65° C. in the presence of a DIG probe of nk×2.5 as a cardiac muscle marker according to a conventional method. After washing, cardiomyocytes were stained by an alkali phosphatase color reaction using an anti-DIG antibody. The stained embryos were washed with PBS, embedded in 75% glycerin/PBS and localized, and then microscopically photographed with incident light. The number of tested individuals was unified with n=80 for each compound.
In addition, the zebrafish embryos injected with the test compound by the above-described method were cultured at 28.5° C. until 48 hours after fertilization, embedded in 3% methyl cellulose/E3, and a moving image was photographed. The number of blood cells pumped in one heartbeat in time-lapse was counted n=15 and compared to Ringer injected individuals.

Purkinje cells = assay: Test Example 6: increase in Purkinje cells of adult mouse after injection into E11.5 fetal ventricle; conditions: test compounds = Compounds 1 to 7; 100 μM injected into E11.5 fetal ventricle, counted in adult mice; vs control; N=10
Protocol: A solution prepared by dissolving 100 μM of the test compound in physiological saline was injected into E11.5 mouse fetal ventricle. Brains of adult mouse individuals were fixed, and slice sections of cerebellar Purkinje cell layers were immunostained with an anti-d-Calbindin antibody, which is a marker of cell bodies and neurites of Purkinje cells. After staining, the number of Purkinje cells was counted, and the average value thereof was calculated.
As a control experiment (control), a similar experiment was performed using physiological saline containing no test compound.
The number of samples is 10 for each of Compounds 1 to 7 and control (N=10).

[1] = test system: mesencephalic neural stem cells; assay: Test Example 7: increase in neural stem cells of adult zebrafish by intracerebroventricular administration; conditions: test compounds = Compounds 1 to 7; 100 μM into ventricle of one-month-old fish, 1 week; E3 Ringer or lipofection; vs control
Protocol: Reporter gene transgenic line of zebrafish specifically expressing green fluorescent protein in mesencephalic neural stem cells
A solution (0.1% DMSO) in which the test compound (100 μM) was dissolved in E3 Ringer (zebrafish physiological saline) was prepared. Mesencephalic neural stem cells were microscopically injected into the ventricles of one-month-old adult fish individuals labeled with green fluorescent protein, and cultured at 28.5° C. for 1 week.
As a control experiment (control), only E3 Ringer (0.1% DMSO plus 0.025% phenol red) was administered into the ventricle in the same volume. […]
Specifically, the solid cultured for 7 days after injection was held in a 3% methylcellulose/E3 Ringer/0.02% tricaine solution on a slide glass, and then GFP was emitted with 488 nm excitation light and imaged by a CCD camera. In addition, the average fluorescence brightness of the green fluorescent protein in a rectangle with a width of 100 μm and a height of 50 μm with the rostral end up around the fluorescence expression part was measured with a brightness analysis software. […]
In order to inhibit synthesis of melanin pigment that interferes with observation with a fluorescence microscope, 0.2 mM phenylthiourea (PTU) had been added to the culture solution.

[2] = test system: sox1α, sox2, sox3, and her6; assay: Test Example 1: quantitative PCR of neural stem cell markers in brains of treated zebrafish; conditions: brain of treated zebrafish individuals; ΔΔCt; vs control
Protocol: Moreover, the brains of the treated zebrafish individuals were dissected and washed with sterile distilled water, and then crushed by pipetting or 1 ml syringe suction discharge with 18 G to 24 G needles in 500 μl of Sepasol-RNA I Super G (Nacalai Tesque). A deproteinization operation was conducted once by equivalent phenol/chloroform treatment and once by chloroform treatment, and the supernatant was subjected to RNA purification using an RNA purification column (RNeasy Plus Mini Kit, Qiagen). The elute was reverse-transcribed using a mixed primer of random hexamer and oligo-dT (ReverTra Ace qPCR Kit, TOYOBO) at 37° C. for 15 minutes and 98° C. for 5 minutes, and quantitative PCR of expression levels of sox1α, sox2, sox3, and her6, which are markers of neural stem cells, was performed. Quantitative PCR was performed with SYBER Green Realtime PCR Master Mix (TOYOBO). For the PCR reaction, ABI PRISM 7700 or LightCycler from Roche Diagnostics K.K. was used. Quantification was performed in 3 wells per identical sample (n=3). The obtained data was comparatively quantified by a ΔΔCt method using a normalizer (β-actin, GAPDH, 18S, or the like). In order to confirm that the quantitative reaction was reliable, it was confirmed that the amplification product was in a band by agarose electrophoresis.

O=C(O)CCC(=O)Nc1ccc(Br)cn1 [Compound 5, 4-[(5-Bromopyridin-2-yl)amino]-4-oxobutyric acid]
production amount of insulin by β cells (in situ hybridization, ins probe) (pancreatic β cells): significantly increased as compared with the control individual
amount of cardiomyocytes (in situ hybridization, nkx2.5) (cardiomyocytes): increase in the amount of cardiomyocytes was observed
number of Purkinje cells in the cerebellar Purkinje cell layers (Purkinje cells): significantly higher than that of the control
fluorescence indicating the presence of mesencephalic neural stem cells in the brain of adult zebrafish [1]: strongly detected as compared with the control

COc1cc(N2CCC(N(C)C)CC2)ccc1Nc1ncc(Cl)c(Nc2ccccc2P(C)(C)=O)n1 [Compound 6, 5-Chloro-2-N-{4-[4-(dimethylamino)piperidin-1-yl]-2-methoxyphenyl}-4-N-[2-(dimethylphosphoryl)phenyl]pyrimidine-2,4-diamine]
production amount of insulin by β cells (immunostaining with anti-insulin antibody, average fluorescence intensity) (pancreatic β cells): significantly increased as compared with the control individual
production amount of insulin by β cells (in situ hybridization, ins probe) (pancreatic β cells): significantly increased as compared with the control individual

Cc1cccc(-c2n[nH]cc2-c2ccnc3ccccc23)n1 [Compound 2, 4-[3-(6-Methylpyridin-2-yl)-1H-pyrazol-4-yl]quinoline]
production amount of insulin by β cells (immunostaining with anti-insulin antibody, average fluorescence intensity) (pancreatic β cells): significantly increased as compared with the control individual
production amount of insulin by β cells (in situ hybridization, ins probe) (pancreatic β cells): significantly increased as compared with the control individual
expression levels of sox1α, sox2, sox3, and her6 (quantitative PCR) [2]: significant increase in expression levels
amount of cardiomyocytes (in situ hybridization, nkx2.5) (cardiomyocytes): increase in the amount of cardiomyocytes was observed
number of Purkinje cells in the cerebellar Purkinje cell layers (Purkinje cells): significantly higher than that of the control
